Where “and” joins values, the source holds several entries; their conditions need not be identical. Identical values can stand only once.
How the values were obtained:
A375 cells [1] = test: Flow cytometry cell cycle (G2/M) and apoptosis (sub-G1) analysis, A375; assay type: cell-based, human; settings: Homo sapiens, A-375, read-out: SEC50
[2] = tested on: Human Colon Carcinoma HT29; test: MTT growth inhibitory assay, HT29; assay type: cell-based; settings: HT29 cells, A3 antagonist at 1 μg/ml
[3] = tested on: Human Pancreatic Cancer Panc-1; test: MTT growth inhibitory assay, Panc-1; assay type: cell-based; settings: Panc-1 cells, A3 antagonist at 1 μg/ml
Protocol: (§1) Interpretation of the EF is dependent upon the concentrations of A3 receptor antagonist tested. For example, when using very low concentrations of A3 receptor antagonist, any EF above 1.0 is synergistic if the A3 receptor antagonist concentration is below the threshold of cell growth inhibition.
(§2) The cells are sub-cultured twice a week.
(§3) Vinblastine sulfate salt was obtained from Sigma Chemical Co., (V1377). Irinotecan was diluted with culture medium. All other agents were dissolved in 100% DMSO at appropriate concentrations. The DMSO stock solutions were diluted 100-fold with growth medium so that the final DMSO concentration was 1%.

[4] = tested on: Human Lung Carcinoma SKMES; test: MTT growth inhibitory assay, SKMES; assay type: cell-based; settings: SKMES cells, A3 antagonist at 1 μg/ml
Protocol: as §1, §2, §3

Human Melanoma A375 = test: MTT growth inhibitory assay, A375; settings: A375 cells
Protocol: An exemplary assay may comprise the following steps: Cells (1000-1500 cells/well) are seeded in a 96-well micro culture plate in a total volume of 100 μl/well. After overnight incubation in a humidified incubator at 37° C. with 5% CO2-95% air, chemotherapeutic drug solutions diluted with culture medium at various concentrations are added in the amount of 100 μl to each well. The plates are placed in a humidified incubator at 37° C. with 5% CO2-95% air for 7-10 days. The plates are then centrifuged briefly and 100 μl of the growth medium is removed. Cell cultures are incubated with 50 μl of MTT [3-(4,5-dimethylthiazol-2-yl)-2,5-diphenyl-tetrazolium bromide] reagent (1 mg/ml in Dulbecco's phosphate-buffered saline) for 4 hr at 37° C. The resultant purple formazan precipitate is solubilized with 200 μl of 0.04 N HCl in isopropanol. Absorbance is measured at a wavelength of 595 nm and at a reference wavelength of 655 nm using a Bio-Rad Model 3550 Microplate Reader. Preferably, all tests are run in duplicate for each dose level. […] The EZED50 computer program estimates the concentration of agent that inhibits cell growth by 50% as compared to the control cells. This is termed the IC50 and is determined by curve fitting test data using the following four logistic equation. [formula]
If testing concentrations are properly selected (i.e., no or little growth inhibition at low concentrations and complete inhibition at high concentrations), EZED50 program fits the data extremely well and estimates the IC50 value accurately. […] In these instances, the data could be re-analyzed by fixing the Amax value.
In this case, the IC50 could be estimated more accurately if both the Amax and Amin values are fixed. Although it may be feasible to estimate IC50 value by fixing Amax and/or Amax and Amin without repeating the experiment, the best way to determine the IC50 accurately is to decrease or increase the concentrations of the test agent and repeat the test.
Inhibitory assay testing is also used to determine enhanced therapeutic effects from combining A3 receptor antagonists with other tumor inhibiting agents. The inhibitory cell growth assays are run with and without selected concentrations of A3 receptor antagonists. An enhanced therapeutic effect is present when the IC50 of the tumor inhibiting agent is lower with the A3 receptor antagonist.
Quantitatively, the enhancement factor (EF) is calculated by dividing the IC50 value of the tumor inhibiting agent for a tumor cell line by the IC50 value of the agent with A3 receptor antagonist for the same cell line: [formula]
The cells are cultured in a T25 Falcon Tissue Culture flask in a humidified incubator at 37° C. with 5% CO2-95% air. The cells are sub-cultured twice a week.

A375 cells [5] = test: Colony formation assay of A375 cells; assay type: cell-based, human; settings: 10 μM combined with paclitaxel (0.75 μg/ml), 7 days
Protocol: FIG. 2 illustrates colony formation assay of A375 cells. Cells were treated with different drugs and colonies were counted after 7 days. The values represent the mean±SEM of four independent experiments. […] Analysis was by ANOVA followed by Dunnett's test.
Control plates received the same volume of DMSO alone. After 7 days of growth at 37° C. in humidified atmosphere containing 5% CO2, the cells were fixed with absolute methanol for 5′ and stained with 1/10 Giemsa/phosphate-buffered saline (PBS) staining solution for 10 minutes. Staining solution was removed and colonies of greater than 30 cells were scored as survivors. For each treatment, six individual wells were scored.

HIF-1α = HIF-1α protein immunoblot in hypoxic cells; assay type: cell-based, human; settings: A375
Protocol: Cell culture and hypoxia treatment: Cells were maintained in DMEM (A375), EMEM (NCTC 2544) or RPMI 1640 (U87MG, U2OS) medium containing 10% fetal calf serum, penicillin (100 U/ml), streptomycin (100 ug/ml), and L-glutamine (2 mM) at 37° C. in 5% CO2/95% air. Cells were passaged two or three times weekly at a ratio between 1:5 and 1:10. Hypoxic exposure was in BBL™ GasPak pouch™ System (Becton Dickinson) that reduce oxygen concentration of less than 2% within 2 hours of incubation at 35° C.
Cells were harvested and washed with ice-cold PBS containing 1 mM sodium orthovanadate, AEBSF 104 mM, aprotinin 0.08 mM, leupeptin 2 mM, bestatin 4 mM, pepstatin A 1.5 mM, E-64 1.4 mM. Cells were then lysed in Triton lysis buffer. The protein concentration was determined using BCA protein assay kit (Pierce). […] The gel was then electroblotted onto a nitrocellulose membrane. Membranes were blocked with 5% nonfat dry milk in PBS containing 0.1% Tween-20 and incubated with antibodies against HIF-1α (1:250 dilution) and HIF-1β (1:1000 dilution) in 5% nonfat dry milk in PBS/0.1% Tween-20 overnight at 4° C. Aliquots of total protein sample (50 ug) were analyzed using antibodies specific for phosphorylated (Thr183/Tyr185) or total p44/p42 MAPK (1:5000 dilution), phosphorylated (Thr180/Tyr182) or total p38 MAPK (1:1000 dilution) and for A3 receptor (1 µg/ml dilution). Filters were washed and incubated for 1 hour at room temperature with peroxidase-conjugated secondary antibodies against mouse and rabbit IgG (1:2000 dilution). […] The membranes were then stripped and reprobed with tubulin (1:250) to ensure equal protein loading.
U0126 was used at 10 and 30 uM as inhibitor of MEK-1 and MEK-2 to prevent p44 and p42 MAPK activation. SB202190 was used at 1 and 10 uM as inhibitor of p38 MAPK.
Densitometry analysis: The intensity of each band in immunoblot assay was quantified using molecular analyst/PC densitometry software (Bio-Rad). […] The data were presented as the mean±S.E., and analyzed by the Student's test.

Structure (SMILES): CCCn1cc2c(nc(NC(=O)Nc3ccc(OC)cc3)n3nc(-c4ccco4)nc23)n1 [MRE3008F20, 5-[[(4-Methoxyphenyl)amino]carbonyl]amino-8-propyl-2-(2-furyl)-pyrazolo[4,3-e]1,2,4-triazolo[1,5-c]pyrimidine]
- EC50 (A375 cells [1]): 550 ± 60 nM
- Enhancement Factor ([2]; enhancement of docetaxel IC50): 15.0
- Enhancement Factor ([2]; enhancement of doxorubicin IC50): 1.6
- Enhancement Factor ([2]; enhancement of irinotecan IC50): 1.8
- Enhancement Factor ([2]; enhancement of paclitaxel IC50): 2.9
- Enhancement Factor ([3]; enhancement of docetaxel IC50): 1.8
- Enhancement Factor ([3]; enhancement of paclitaxel IC50): 1.9
- Enhancement Factor ([4]; enhancement of docetaxel IC50): 3.6
- Enhancement Factor ([4]; enhancement of irinotecan HCL IC50): 2.1
- Enhancement Factor ([4]; enhancement of paclitaxel IC50): 4.1
- Enhancement Factor ([4]; enhancement of vinblastine IC50): 1.2
- Enhancement Factor (Human Melanoma A375; enhancement of docetaxel IC50, A3 antagonist at 3 μg/ml): 6.9
- Enhancement Factor (Human Melanoma A375; enhancement of docetaxel IC50, A3 antagonist at 10 μg/ml): 5.3
- Enhancement Factor (Human Melanoma A375; enhancement of paclitaxel IC50, A3 antagonist at 1 μg/ml): 7.1
- Enhancement Factor (Human Melanoma A375; enhancement of paclitaxel IC50, A3 antagonist at 3 μg/ml): 6.4
- Enhancement Factor (Human Melanoma A375; enhancement of paclitaxel IC50, A3 antagonist at 10 μg/ml): 7.1 and 8.5
- Enhancement Factor (Human Melanoma A375; enhancement of paclitaxel, at all three concentrations (1, 3, and 10 μg/ml)): 6.4-7.1
- colony formation, % of DMSO control (A375 cells [5]): 0.2%
- effect on adenosine-induced HIF-1α protein expression (HIF-1α; hypoxia 4 hours, adenosine 100 μM, antagonist 100 nM): abrogated
- effect on Cl-IB-MECA-induced HIF-1α modulation (HIF-1α; hypoxia, antagonist 10 and 100 nM, Cl-IB-MECA 10 and 100 nM): able to abrogate the effect of Cl-IB-MECA
- IC50 (HIF-1α; Homo sapiens, A-375, read-out: IC50, inhibition of HIF-1α protein increase induced by 10 nM Cl-IB-MECA, hypoxia 4 hours, 0.3-30 nM): 0.9 ± 0.08 nM

Source: US20060204502A1 (priority 2004, published 2006)
